# Measurements from patent US20230002373A1, “COMPOUNDS AND COMPOSITIONS FOR TREATING CONDITIONS ASSOCIATED WITH STING ACTIVITY” (IFM Due, Inc., priority 2019, published 2023).
# Target: T1, hSTING (Homo sapiens, UniProt Q86WV6, G230A/H232R/R293Q/R71H)
# T1 construct: host or cells: THP1-Dual KO-IFNAR2 cells
# Assay: STING reporter assay (luciferase) in THP1-Dual KO-IFNAR2 cells stimulated with 2′3′cGAMP
# Format: cell-based
# Conditions: 15 μM 2′3′cGAMP, 24 h, class symbols
# Protocol: STING pathway activation by the compounds described herein was measured using THP1-Dual™ cells (KO-IFNAR2).
# THP1-Dual™ KO-IFNAR2 Cells (obtained from invivogen) were maintained in RPMI, 10% FCS, 5 ml P/S, 2 mM L-glut, 10 mM Hepes, and 1 mM sodium pyruvate. Compounds were spotted in empty 384 well tissue culture plates (Greiner 781182) by Echo for a final concentration of 0.0017-100 μM. Cells were plated into the TC plates […], 2×10E6 cells/mL. For activation with STING ligand, 2′3′cGAMP (MW 718.38, obtained from Invivogen), was prepared in Optimem media.
# The following solutions were prepared for each 1×384 plate: • Solution A: 2 mL Optimem with one of the following stimuli: • 60 μL of 10 mM 2′3′cGAMP->150 μM stock • Solution B: 2 mL Optimem with 60 μL Lipofectamine 2000->Incubate 5 min at RT
# 2 mL of solution A and 2 ml Solution B was mixed and incubated for 20 min at room temperature (RT). 20 uL of transfection solution (A+B) was added on top of the plated cells, with a final 2′3′cGAMP concentration of 15 μM. The plates were then centrifuged immediately at 340 g for 1 minute, after which they were incubated at 37° C., 5% CO2, >98% humidity for 24 h. Luciferase reporter activity was then measured. EC50 values were calculated by using standard methods known in the art.
# Luciferase reporter assay: 10 μL of supernatant from the assay was transferred to white 384-plate with flat bottom and squared wells. One pouch of QUANTI-Luc™ Plus was dissolved in 25 mL of water. 100 μL of QLC Stabilizer per 25 mL of QUANTI-Luc™ Plus solution was added. 50 μL of QUANTI-Luc™ Plus/QLC solution per well was then added. Luminescence was measured on a Platereader (e.g., Spectramax I3X (Molecular Devices GF3637001)).
# Luciferase reporter activity was then measured. EC50 values were calculated by using standard methods known in the art.
# T1 sequence (Q86WV6 whole entry R71H/G230A/H232R/R293Q): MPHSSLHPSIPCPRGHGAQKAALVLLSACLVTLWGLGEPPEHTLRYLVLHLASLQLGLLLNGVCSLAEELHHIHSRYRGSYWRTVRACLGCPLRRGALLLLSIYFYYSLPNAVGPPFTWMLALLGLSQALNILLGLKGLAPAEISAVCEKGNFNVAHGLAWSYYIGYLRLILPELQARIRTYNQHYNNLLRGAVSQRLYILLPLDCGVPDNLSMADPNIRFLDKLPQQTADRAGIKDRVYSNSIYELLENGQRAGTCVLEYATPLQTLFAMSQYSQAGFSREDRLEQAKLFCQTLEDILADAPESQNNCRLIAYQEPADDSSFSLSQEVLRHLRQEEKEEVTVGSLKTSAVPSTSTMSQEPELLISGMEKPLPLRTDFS
row,EC50 [µM],SMILES
1,1 to 5,"O=C(NCc1ccc(-c2ccccc2C(F)(F)F)cc1)C(=O)Nc1c[nH]c2cccnc12 [Compound 110, N^1-(1H-pyrrolo[3,2-b]pyridin-3-yl)-N^2-((2′-(trifluoromethyl)-[1,1′-biphenyl]-4-yl)methyl)oxalamide]"
2,1 to 5,COc1cc2c(NC(=O)C(=O)NCc3ccc(C)c(C(F)(F)F)c3)c[nH]c2cn1 [Compound 214]
3,1 to 5,C[C@@H](NC(=O)C(=O)Nc1c[nH]c2c(F)cncc12)c1ccc(C(F)(F)F)cc1 [Compound 205]
4,0.2 to 1,"O=C(NCc1ccc(Cl)c(C(F)(F)F)c1)C(=O)Nc1c[nH]c2ccncc12 [Compound 171, N1-(4-chloro-3-(trifluoromethyl)-benzyl)-N2-(1H-pyrrolo[3,2-c]pyridin-3-yl)oxalamide]"
5,0.2 to 1,"Cc1c(CNC(=O)C(=O)Nc2c[nH]c3cccnc23)cccc1C(F)(F)F [Compound 138, N1-(2-methyl-3-(trifluoromethyl)benzyl)-N2-(1H-pyrrolo[3,2-b]pyridin-3-yl)oxalamide]"

# The remaining lines, values behind:
row,SMILES,EC50 [µM]
1,O=C(NCC1(c2cccc(Cl)c2)CC1)C(=O)Nc1c[nH]c2ccncc12 [Compound 129],5 to 100
2,"O=C(Nc1c[nH]c2ncc(F)cc12)C(=O)N[C@H]1CCCC2(CCCCC2)C1 (single isomer, unassigned) [Compound 196, N-[5-fluoro-1H-pyrrolo[2,3-b]pyridin-3-yl]-N′-[(2S or 2R)-spiro[5.5]undecan-2-yl]ethanediamide]",1 to 5
3,"O=C(NCc1ccc(-c2ccccc2C(F)(F)F)cc1)C(=O)Nc1c[nH]c2ccncc12 [Compound 120, N^1-(1H-pyrrolo[3,2-c]pyridin-3-yl)-N^2-((2′-(trifluoro-methyl)-[1,1′-biphenyl]-4-yl)methyl)oxalamide]",0.2 to 1
4,"O=C(Nc1c[nH]c2ncc(F)cc12)C(=O)NC1CCC2(CCCCC2)CC1 [Compound 103, N^1-(5-fluoro-1H-pyrrolo[2,3-b]pyridin-3-yl)-N^2-(spiro[5.5]undecan-3-yl)oxalamide]",0.2 to 1
5,"Cc1ccc(OCCNC(=O)C(=O)Nc2c[nH]c3ccncc23)cc1C [Compound 157, N1-(2-(3,4-dimethylphenoxy)ethyl)-N2-(1H-pyrrolo[3,2-c]pyridin-3-yl)oxalamide]",5 to 100
6,O=C(NCc1ccc(Cl)c(OC(F)(F)F)c1)C(=O)Nc1c[nH]c2c(F)cncc12 [Compound 208],1 to 5
7,"O=C(NCCC1CCC(F)(F)CC1)C(=O)Nc1c[nH]c2ccncc12 [Compound 122, N^1-(2-(4,4-difluorocyclo-hexyl)ethyl)-N^2-(1H-pyrrolo[3,2-c]pyridin-3-yl)oxalamide]",5 to 100
8,"O=C(Nc1c[nH]c2ncc(F)cc12)C(=O)N[C@H]1CCC2(CCCC2)C1 (single isomer, unassigned) [Compound 199]",5 to 100
9,"O=C(NCC1CC2C=CC1C2)C(=O)Nc1c[nH]c2cccnc12 (stereo not shown) [Compound 111, N^1-(bicyclo[2.2.1]hept-5-en-2-ylmethyl)-N^2-(1H-pyrrolo[3,2-b]pyridin-3-yl)oxalamide]",5 to 100
10,O=C(Nc1ccc(C(F)(F)F)c(Cl)c1)C(=O)Nc1c[nH]c2ccncc12 [Compound 216],0.2 to 1
11,"Cc1cc(F)c(Cl)cc1NC(=O)C(=O)Nc1c[nH]c2cccnc12 [Compound 136, N1-(5-chloro-4-fluoro-2-methylphenyl)-N2-(1H-pyrrolo[3,2-b]pyridin-3-yl)oxalamide]",5 to 100
12,"Cc1cc(NC(=O)C(=O)Nc2c[nH]c3cccnc23)cc(C(F)(F)F)c1 [Compound 107, N^1-(3-methyl-5-(trifluoromethyl)phenyl)-N^2-(1H-pyrrolo[3,2-b]pyridin-3-yl)oxalamide]",0.2 to 1

# Same assay, conditions: 15 μM 2′3′cGAMP, 24 h, numeric bounds
row,EC50 [µM],SMILES
1,> 30,"O=C(Nc1c[nH]c2cccnc12)C(=O)NC(c1ccc(F)cc1)C1CC1 (stereo not shown) [Compound 135, N1-(cyclopropyl(4-fluorophenyl)methyl)-N2-(1H-pyrrolo[3,2-b]pyridin-3-yl)oxalamide]"
2,> 30,"O=C(NCC1CCCC(F)(F)C1)C(=O)Nc1c[nH]c2ccncc12 (stereo not shown) [Compound 146, N1-((3,3-difluorocyclohexyl)-methyl)-N2-(1H-pyrrolo[3,2-c]pyridin-3-yl)oxalamide]"
